Reference: patent publication US7432045B2 (priority 2003, dated 2008)
Square brackets hold non-standard residues; d marks the D form. Peptide text beside a SMILES is read from it. * marks the point of attachment. Biotin = O=C1N[C@H]2[C@H](CS[C@H]2CCCCC(=O)*)N1; Ahx = NCCCCCC(=O)O

Key:
[1] = MTS assay; conditions: human, CEMx174 cells (T-B hybridoma)
[2] = MTS assay; conditions: African green monkey, Vero cells
[3] = MTS assay; conditions: human, HeLa cells
[4] = MTS assay; conditions: human, DP-9 cells (foreskin fibroblast)
[5] = MTS assay; conditions: African green monkey, CV-1PD cells (kidney)
[6] = MTS assay; conditions: human, W12E cells (cervical carcinoma cell line)
[7] = MTS assay; conditions: human, NIKS cells (normal immortalized keratinocytes)
[8] = MTS assay; conditions: human, TM-1 cells (trabecular meshwork)
[9] = test system: Vero, HeLa, CV-1PD, TM-1, DP-9, CEMx174, NIKS, W12E cells; test: MTS assay, eight cell lines; conditions: eight cell lines
[10] = test system: cornea; test: In vivo peptide toxicity, cornea; design: species or system BALB/C mice; conditions: for punctate keratopathy: calcein staining; for blepharitis: four times a day for seven days
Procedure: (i) Cornea: Four-6-week-old female BALB/C mice (Harlan Sprague Dawley, Indianapolis, Ind.) were anesthetized by halothane inhalation (3-5%). A 2.0 μL drop of serum-free 5×DMEM solution containing 6.1 mM EB, 6.1 mM EBX, 7.5 mM TAT-C, 7.5 mM n50,51 TAT-C, 7.5 mM TAT-Cd, or 11.2 mM bHOMd or serum-free DMEM only (control) was then placed on the cornea and the mice were returned to their cages. Each group consisted of 5 mice, except for 11.2 mM bHOMd, and 7.5 mM TAT-Cd, which consisted of 4 mice. Only the right eye in each mouse received the peptide. Treatments were given 4 times per day at least 2 hrs apart for 7 days. On days 1, 5, and 7, the mice were examined microscopically for evidence of blepharitis, punctate keratopathy, dendrite ulceration and geographic ulceration. Damage to the corneal epithelium was assessed by staining with 1.0% […] and examination under a microscope with blue light. Blepharitis was scored: 1+ for noticeable puffy eyelids, 2+ for puffy eyelids with moderate crusting, 3+ for eye 50% swollen shut with severe crusting, and 4+ for eye totally swollen and crusted shut (Brandt et al., 1992). Punctate keratopathy, dendrite ulceration, and geographic ulceration were scored: 1+ for <25% of the cornea involved, 2+ for 25-50% involved, 3+ for 50-75% involved, and 4+ for >75% involved. The mean disease score for each group of mice on each day was calculated by the sum of disease scores in each group on each day divided by the numbers of mice in that group. On day 7, following the last treatment, the mice were sacrificed and the eyes were removed, fixed in 10% formalin, embedded in paraffin, sectioned (5μ each), and stained with hematoxylin and eosin as we have described previously (Brandt et al., 1996). Sections were then examined for evidence of damage to the cornea, sclera, lens, and retina.

[11] = test system: influenza A virus (Sydney 05/97,H3N2)
[12] = test system: MDCK cells
[13] = test system: vagina; conditions: mouse, in vivo
[14] = test system: HSV-1 KOS mutant hrR3; test: Inactivation of pre-adsorbed virus (virus inactivation); type: cell-based; conditions: pre-adsorbed virus
[15] = test system: hrR3 virions; test: Inactivation of virions in solution; type: cell-based, HSV-1; conditions: 200 μM peptide
Procedure: Inactivation of virions: To assess the ability of peptides to inactivate virions, 3-4×10^6 pfu/mL of virus was mixed on ice with peptide in serum-free DMEM and incubated for 1 h at 4 or 37° C. Aliquots (10 μL) were diluted 1000-fold into peptide-free serum-supplemented DMEM at 23° C. and 50 μL aliquots were assayed in triplicate for infectivity in Vero cell cultures (dilution assay). Alternatively, 10 μL aliquots were diluted into 1 mL of ice-cold peptide-free serum-supplemented DMEM and the virus was pelleted as described above (centrifugation assay). Viral pellets were then resuspended in 250 μL serum-supplemented DMEM and 50 μL aliquots were assayed in triplicate for infectivity in Vero cell cultures.
Some of the virus diluted without the addition of NaCl was pelleted immediately (Control), while the rest of the diluted virus was stored at 4° C. and pelleted 19 h later. The virus was pelleted and assayed for infectivity as described in Example 1.

[16] = test system: HSV-1 KOS mutant hrR3; test: Release of preadsorbed virus into the culture medium; type: cell-based
Procedure: Release of preadsorbed virus into the culture medium: Virus preadsorbed to Vero cells (m.o.i.=0.02) was exposed to heparin (porcine intestinal mucosa; Sigma-Aldrich Co., St. Louis Mo.; #H9399) or to peptides in 40 μL of serum-supplemented DMEM. After 1 h at 4° C., the culture medium and two 40 μL rinses were collected and pooled from eight identically treated wells. Pooled samples were centrifuged at 14,000×g in an Eppendorf 5415 centrifuge for 99 min at 4° C. or they were first adjusted to 0.5 M NaCl by adding 2 M NaCl dissolved in serum-supplemented DMEM prior to centrifugation. Supernatants were aspirated, the pellets were resuspended in 120 μL serum-supplemented DMEM and duplicate 50 μL aliquots were assayed for infectivity in Vero cell cultures. Calculations of the amount of released virus assumed 47% virus recovery in the centrifugation step, since control experiments had established that 47% of virus input was recovered regardless of whether the virus was sedimented in the presence or absence of 0.5 M NaCl.
In this example pre-adsorbed virus was exposed to heparin (FIG. 19 Panels A, B) or TAT-Cd peptide (FIG. 19 Panels C, D) for 1 h at 4° C. (FIG. 19 Panels A, B, C) or 18° C. (FIG. 19 Panel D) and any virus released into the culture medium during this time was collected and pelleted in the presence (◯) or absence (▴) of 0.5 M NaCl and assayed for infectivity as described in Example 1. […] Virus inhibition (●) corresponds to the number of LacZ+ cells seen in the absence of inhibitor minus the number of LacZ+ cells seen in the presence of inhibitor and is equivalent to the maximal amount of virus potentially released into the culture medium as a result of virus inhibition. Panel B compares the amount of infectious virus recovered in the presence (◯; data from Panel A) and absence (▴) of 0.5 M NaCl at an expanded scale.

[17] = target: T1, trypsin (Sus scrofa, UniProt P00761); test: Trypsinization of peptides; conditions: 0.005 or 0.01% trypsin, 1 h at 37° C.
T1 construct: purchased BioWhittaker 17-160E
Procedure: Trypsinization of peptides: Peptides dissolved in serum-free DMEM were exposed to 0.005 or 0.01% trypsin for 1 h at 37° C. The trypsin was then inactivated with a 1.3-fold molar excess of soybean trypsin inhibitor and the ability of the peptides to inactivate virions was tested as described above (centrifugation assay). In controls, trypsin was inactivated before it was added to the peptides.
In Panel B, peptides in serum-free medium were pre-treated with active trypsin (open bars) or inactivated trypsin (shaded bars) for 1 h at 37° C. before they were added to virions for 1 h at 37° C. (see Example 1). The treated virions were then pelleted and resuspended in serum-supplemented medium and assayed for infectivity without further trypsinization. The peptide concentrations were as high or higher than those used in Panel A: […] TAT-C, 50 μM bKLA, 200 μM EB and bHOM-9. Trypsin concentrations used in both Panels A and B, were 0.005% (for bKLA, EB and bHOM-9) or 0.01% (for TAT-C and the ‘no peptide’ control).

[18] = test system: H5 Avian Influenza virus
[19] = test system: hrR3
[20] = in vitro; conditions: African green monkey

T1 sequence (P00761 9-231): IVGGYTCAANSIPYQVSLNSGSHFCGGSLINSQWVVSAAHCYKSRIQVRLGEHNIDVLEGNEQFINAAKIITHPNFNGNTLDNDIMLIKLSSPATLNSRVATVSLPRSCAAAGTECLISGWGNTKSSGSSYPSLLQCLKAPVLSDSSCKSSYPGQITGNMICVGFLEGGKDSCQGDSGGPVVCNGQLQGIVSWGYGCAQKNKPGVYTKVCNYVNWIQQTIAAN

**Q.** With `CC[C@H](C)[C@H](NC(=O)[C@H](CCCCN)NC(=O)[C@@H](NC(=O)[C@H](CCC(N)=O)NC(=O)[C@H](CCCNC(=N)N)NC(=O)CCCCCNC(=O)CCCC[C@@H]1SC[C@@H]2NC(=O)N[C@@H]21)[C@@H](C)CC)C(=O)N[C@@H](Cc1c[nH]c2ccccc12)C(=O)N[C@@H](Cc1ccccc1)C(=O)N1CCC[C@H]1C(=O)N[C@@H](CC(N)=O)C(=O)N[C@@H](CCCNC(=N)N)C(=O)N[C@@H](CCCNC(=N)N)C(=O)N[C@@H](CCSC)C(=O)N[C@@H](CCCCN)C(=O)N[C@@H](Cc1c[nH]c2ccccc12)C(=O)N[C@@H](CCCCN)C(=O)N[C@@H](CCCCN)C(N)=O` [bHOM] ({Biotin-Ahx}-RQIKIWFPNRRMKWKK-NH2; N-terminus and C-terminus assumed) as the molecule, how does the EC50 [1] read?
**A.** Its EC50 is 50 µM.

**Q.** What about the EC50 [2] of the same molecule?
**A.** The EC50 was 75 µM.

**Q.** What about the EC50 [3] of the same molecule?
**A.** Its EC50 is 100 µM.

**Q.** And the EC50 [4]?
**A.** The EC50 was 150 µM.

**Q.** What about the EC50 [5] of the same molecule?
**A.** The EC50 was 180 µM.

**Q.** And the EC50 [6]?
**A.** The EC50 was > 200 µM.

**Q.** What about the EC50 [7] of the same molecule?
**A.** The EC50 was > 200 µM.

**Q.** What about the EC50 [8] of the same molecule?
**A.** The EC50 was > 200 µM.

**Q.** And the “cytotoxicity to cells (MTS), overall” value [9]?
**A.** Its value is “generally not cytotoxic”.

**Q.** Which punctate keratopathy [10] does the source give for `CC[C@@H](C)[C@@H](NC(=O)[C@@H](CCCCN)NC(=O)[C@H](NC(=O)[C@@H](CCC(N)=O)NC(=O)[C@@H](CCCNC(=N)N)NC(=O)CCCCCNC(=O)CCCC[C@@H]1SC[C@@H]2NC(=O)N[C@@H]21)[C@H](C)CC)C(=O)N[C@H](Cc1c[nH]c2ccccc12)C(=O)N[C@H](Cc1ccccc1)C(=O)N1CCC[C@@H]1C(=O)N[C@H](CC(N)=O)C(=O)N[C@H](CCCNC(=N)N)C(=O)N[C@H](CCCNC(=N)N)C(=O)N[C@H](CCSC)C(=O)N[C@H](CCCCN)C(=O)N[C@H](Cc1c[nH]c2ccccc12)C(=O)N[C@H](CCCCN)C(=O)N[C@H](CCCCN)C(N)=O` [bHOMd, b - RQIKIWFPNRRMKWKK-amide] ({Biotin-Ahx}-[dR][dQ][dI][dK][dI][dW][dF][dP][dN][dR][dR][dM][dK][dW][dK][dK]-NH2) here?
**A.** Its punctate keratopathy is “very mild punctate keratopathy”.

**Q.** What about the blepharitis [10] of the same molecule?
**A.** Its blepharitis is “mild blepharitis”.

**Q.** And the “antiviral effect against influenza A virus versus cytotoxic effects” value [11]?
**A.** The value was “blocks influenza A virus in the absence of cytotoxic effects”.

**Q.** And the “cytotoxic effects (trypan blue staining)” value [12]?
**A.** Its value is “No cytotoxic effects”.

**Q.** Which “effect on vaginal tissues (H&E sections)” value [13] does the source give for nonoxynol-9 [N−9] here?
**A.** Its value is “No differences in the appearance of the tissues”.

**Q.** With `N=C(N)NCCC[C@@H](NC(=O)CN)C(=O)N[C@H](CCCCN)C(=O)N[C@H](CCCCN)C(=O)N[C@H](CCCNC(=N)N)C(=O)N[C@H](CCCNC(=N)N)C(=O)N[C@H](CCC(N)=O)C(=O)N[C@H](CCCNC(=N)N)C(=O)N[C@H](CCCNC(=N)N)C(=O)N[C@H](CCCNC(=N)N)C(=O)N[C@H](CS)C(=O)O` [TAT-Cd, NH2-GRKKRRQRRRC-COOH] as the molecule, how does the “plateau / maximal extent of virus inactivation” value [14] read?
**A.** The value was ~100%.

**Q.** What about the “recovery of infectious virions, of the mock-treated virus” value ([15]; 1 h at 37° C., pelleted immediately) of the same molecule?
**A.** Its value is < 1%.

**Q.** What about the “increase of viral yields by 0.5 M NaCl during 19 h incubation, of the mock-treated controls” value ([15]; 19 h at 4° C.) of the same molecule?
**A.** The value was “about 1%”.

**Q.** What about the “inactivation of preadsorbed virus” value ([16]; 18° C.) of the same molecule?
**A.** The value was 93%.

**Q.** And the virus recovery ([16]; 18° C., 0.5 M NaCl)?
**A.** Its virus recovery is ≤ 5.6%.

**Q.** What about the “potentially released virus actually recovered in the medium” value ([16]; 1 h treatment at 4° C., 0.5 M NaCl) of the same molecule?
**A.** The value was 4.4%.

**Q.** What about the “infectious preadsorbed virus recovered in the culture medium (maximal)” value ([16]; summary, FIG. 19) of the same molecule?
**A.** Its value is “about 5%”.

**Q.** And the “effect of trypsinization of the peptide on its antiviral activity” value [17]?
**A.** The value was “no effect on antiviral activity”.

**Q.** And the punctate keratopathy [10]?
**A.** The punctate keratopathy was “very mild punctate keratopathy”.

**Q.** And the blepharitis [10]?
**A.** Its blepharitis is “mild blepharitis”.

**Q.** What about the “concentration at which not active against the H5 strain” value [18] of the same molecule?
**A.** The value was > 100 µM.

**Q.** What about the “inhibition after rinsing with 0.5 M NaCl” value ([19]; 30 μM peptide 1 h at 4° C.) of the same molecule?
**A.** The value was “completely reversed”.

**Q.** And the infection blocked ([19]; 30 μM peptide 1 h at 4° C., rinsed with culture medium alone)?
**A.** The infection blocked was 90%.

**Q.** And the “time needed to induce cellular resistance” value ([19]; 30 μM peptide, 37° C.)?
**A.** Its value is “almost instantaneously”.

**Q.** With `CC[C@H](C)[C@H](NC(=O)[C@H](CCCCN)NC(=O)[C@@H](NC(=O)[C@H](CCC(N)=O)NC(=O)[C@H](CCCNC(=N)N)NC(=O)CCCCCNC(=O)CCCC[C@@H]1SC[C@@H]2NC(=O)N[C@@H]21)[C@@H](C)CC)C(=O)N[C@@H](Cc1c[nH]c2ccccc12)C(=O)N[C@@H](Cc1ccccc1)C(=O)N1CCC[C@H]1C(=O)N[C@@H](CC(N)=O)C(=O)N[C@@H](CCCNC(=N)N)C(=O)N[C@@H](CCCNC(=N)N)C(=O)N[C@@H](CCSC)C(=O)N[C@@H](CCCCN)C(=O)N[C@@H](Cc1c[nH]c2ccccc12)C(=O)N[C@@H](CCCCN)C(=O)N[C@@H](CCCCN)C(=O)N1CCC[C@H]1C(=O)NCC(=O)N[C@@H](Cc1ccc(O)cc1)C(=O)N[C@@H](C)C(=O)NCC(=O)N[C@@H](C)C(=O)N[C@H](C(=O)N[C@H](C(=O)N[C@@H](CC(N)=O)C(=O)N[C@@H](CC(=O)O)C(=O)N[C@@H](CC(C)C)C(=O)O)C(C)C)C(C)C` [bHOM-9, b - RQIKIWFPNRRMKWKK-9] ({Biotin-Ahx}-RQIKIWFPNRRMKWKKPGYAGAVVNDL-OH) as the molecule, how does the “antiviral effect against influenza A virus versus cytotoxic effects” value [11] read?
**A.** The value was “antiviral and cytotoxic effects were inseparable”.

**Q.** And the IC50 [20]?
**A.** The IC50 was 50 µM.
